{
  "source": "ChEMBL document CHEMBL2074255",
  "about": "“Human intestinal H+/peptide cotransporter. Cloning, functional expression, and chromosomal localization” (J Biol Chem, 1995)",
  "molecules": {"B1": {"name": "Solute carrier family 15 member 1 (Homo sapiens), P46059 (protein)", "chain": "MGMSKSHSFFGYPLSIFFIVVNEFCERFSYYGMRAILILYFTNFISWDDNLSTAIYHTFVALCYLTPILGALIADSWLGKFKTIVSLSIVYTIGQAVTSVSSINDLTDHNHDGTPDSLPVHVVLSLIGLALIALGTGGIKPCVSAFGGDQFEEGQEKQRNRFFSIFYLAINAGSLLSTIITPMLRVQQCGIHSKQACYPLAFGVPAALMAVALIVFVLGSGMYKKFKPQGNIMGKVAKCIGFAIKNRFRHRSKAFPKREHWLDWAKEKYDERLISQIKMVTRVMFLYIPLPMFWALFDQQGSRWTLQATTMSGKIGALEIQPDQMQTVNAILIVIMVPIFDAVLYPLIAKCGFNFTSLKKMAVGMVLASMAFVVAAIVQVEIDKTLPVFPKGNEVQIKVLNIGNNTMNISLPGEMVTLGPMSQTNAFMTFDVNKLTRINISSPGSPVTAVTDDFKQGQRHTLLVWAPNHYQVVKDGLNQKPEKGENGIRFVNTFNELITITMSGKVYANISSYNASTYQFFPSGIKGFTISSTEIPPQCQPNFNTFYLEFGSAYTYIVQRKNDSCPEVKVFEDISANTVNMALQIPQYFLLTCGEVVFSVTGLEFSYSQAPSNMKSVLQAGWLLTVAVGNIIVLIVAGAGQFSKQWAEYILFAALLLVVCVIFAIMARFYTYINPAEIEAQFDEDEKKNRLEKSNPYFMSGANSQKQM"}},
  "format_in_all_cases": "functional, cell-based",
  "key": {"[1]": {"target": "T1, Solute carrier family 15 member 1 (Homo sapiens) (UniProt P46059)", "T1 sequence (whole entry)": "B1 chain", "assay": "TP_TRANSPORTER: inhibition of Gly-Sar uptake (Gly-Sar: 20 uM, Gly-Pro: 10000 uM) in PEPT1-expressing HeLa cells", "design": "scale not given: the % may be the effect or the level left"}, "[2]": {"target": "T1, Solute carrier family 15 member 1 (Homo sapiens)", "assay": "TP_TRANSPORTER: inhibition of Gly-Sar uptake (Gly-Sar: 20 uM, Gly-Gly-Pro: 10000 uM) in PEPT1-expressing HeLa cells", "design": "scale not given: the % may be the effect or the level left"}, "[3]": {"target": "T1, Solute carrier family 15 member 1 (Homo sapiens)", "assay": "TP_TRANSPORTER: inhibition of Gly-Sar uptake (Gly-Sar: 20 uM, Ala-Pro: 10000 uM) in PEPT1-expressing HeLa cells", "design": "scale not given: the % may be the effect or the level left"}, "[4]": {"target": "T1, Solute carrier family 15 member 1 (Homo sapiens)", "assay": "TP_TRANSPORTER: inhibition of Gly-Sar uptake (Gly-Sar: 20 uM, Gly-Gly-Ile: 10000 uM) in PEPT1-expressing HeLa cells", "design": "scale not given: the % may be the effect or the level left"}, "[5]": {"target": "T1, Solute carrier family 15 member 1 (Homo sapiens)", "assay": "TP_TRANSPORTER: inhibition of Gly-Sar uptake (Gly-Sar: 20 uM, Leu-Pro: 10000 uM) in PEPT1-expressing HeLa cells", "design": "scale not given: the % may be the effect or the level left"}, "[6]": {"substrate": "CN(CC(=O)O)C(=O)CN", "assay": "TP_TRANSPORTER: uptake in PEPT1-expressing HeLa cells"}},
  "note": "Residues, ends and D or L forms follow the SMILES beside them.",
  "data": [
    {"molecule": "NCC(=O)N1CCC[C@H]1C(=O)O", "note": "(H-Gly-Pro-OH)", "values": [
      {"measurement": "Activity", "setting": "[1]", "result": 7, "unit": "%"}
    ]},
    {"molecule": "NCC(=O)NCC(=O)N1CCC[C@H]1C(=O)O", "note": "(H-Gly-Gly-Pro-OH)", "values": [
      {"measurement": "Activity", "setting": "[2]", "result": 13, "unit": "%"}
    ]},
    {"molecule": "C[C@H](N)C(=O)N1CCC[C@H]1C(=O)O", "note": "(H-Ala-Pro-OH)", "values": [
      {"measurement": "Activity", "setting": "[3]", "result": 8, "unit": "%"}
    ]},
    {"molecule": "CC[C@H](C)[C@H](NC(=O)CNC(=O)CN)C(=O)O", "note": "(H-Gly-Gly-Ile-OH)", "values": [
      {"measurement": "Activity", "setting": "[4]", "result": 10, "unit": "%"}
    ]},
    {"molecule": "CC(C)C[C@H](N)C(=O)N1CCC[C@H]1C(=O)O", "note": "(H-Leu-Pro-OH)", "values": [
      {"measurement": "Activity", "setting": "[5]", "result": 8, "unit": "%"}
    ]},
    {"molecule": "B1", "values": [
      {"measurement": "Km", "setting": "[6]", "result": 290, "unit": "µM"}
    ]}
  ]
}
